These compounds were tested on lung cancer cell line NCI-H82 (assay: Cell proliferation assay, NCI-H82 (CELL-TITER GLO)). Conditions: Homo sapiens, NCI-H82, 72 h, NCI-H82 cells, 72 h incubation, cell viability by CELL-TITER GLO, top concentration 1 μM; read-out: EC50, Inhibition of NCl-H82 Cell Proliferation.
Type: cell-based
Protocol: The activity of a compound was determined in a cell proliferation assay using the lung cancer cell line NCI-H82. Cells (1,000 cells per well) were cultured with RPMI1640 in a 384-well tissue culture plate. After incubated overnight, the compound was added at predetermined concentrations, starting with 1 μM and followed by a 3-fold serial dilution. After the cells were incubated for 72 h, cell viability was determined using a CELL-TITER GLO assay. The CELL-TITER GLO reagent (25 μL) was added to each well and the luminescence was measured by a multimode microplate reader after a brief period of shaking. EC50 values were determined for the compound. The results are summarized in Table 1, wherein A represents a value no greater than 200 nM, B represents a value greater than 200 nM but no greater than 1 μM, C represents a value greater than 1 μM but no greater than […], and D represents a value greater than 5 μM.
For `C#Cc1nc(NC(=O)N[C@@H](C)c2ccc(-c3cccc4ncsc34)cc2)cs1` [Compound A25, (S)-1-(1-(4-(Benzo[d]thiazol-7-yl)phenyl)ethyl)-3-(2-ethynylthiazol-4-yl)urea], the EC50 was at most 200 nM.
For `C#Cc1nc(NC(=O)N[C@H](C)c2ccc(-c3cccc4ncsc34)cc2)cs1` [Compound A26, (R)-1-(1-(4-(Benzo[d]thiazol-7-yl)phenyl)ethyl)-3-(2-ethynylthiazol-4-yl)urea], the EC50 was 200 to 1000 nM.
In the case of `C#Cc1nc(NC(=O)NCc2ccc(-c3ccccc3C#N)cc2)cs1` [Compound A29, 1-((2′-Cyano-[1,1′-biphenyl]-4-yl)methyl)-3-(2-ethynylthiazol-4-yl)urea], the EC50 is reported as at most 200 nM.
For `C#Cc1nc(NC(=O)NCc2ccc(N3CCCC3)cc2)cs1` [Compound A30, 1-(2-Ethynylthiazol-4-yl)-3-(4-(pyrrolidin-1-yl)benzyl)urea], the EC50 was at most 200 nM.
`C#Cc1nc(NC(=O)NCc2ccc(N3CCCC3C(N)=O)cc2)cs1` (stereo not drawn) [Compound A31, 1-(4-((3-(2-Ethynylthiazol-4-yl)ureido)methyl)phenyl)pyrrolidine-2-carboxamide] showed an EC50 of 200 to 1000 nM.
For `C#Cc1nc(NC(=O)NCc2ccc(N3CCC[C@H]3C#N)cc2)cs1` [Compound A32, (S)-1-(4-(2-Cyanopyrrolidin-1-yl)benzyl)-3-(2-ethynylthiazol-4-yl)urea], the EC50 was at most 200 nM.
For `C#Cc1nc(NC(=O)NCc2ccc(N3CCC[C@@H]3C#N)cc2)cs1` [Compound A33, (R)-1-(4-(2-Cyanopyrrolidin-1-yl)benzyl)-3-(2-ethynylthiazol-4-yl)urea], the EC50 was at most 200 nM.
Compound `C#Cc1nc(NC(=O)NCC(=O)N2CC(c3ccccc3C#N)C2)cs1` [Compound A34, 1-(2-(3-(2-Cyanophenyl)azetidin-1-yl)-2-oxoethyl)-3-(2-ethynylthiazol-4-yl)urea] has an EC50 of 200 to 1000 nM.
Work on `C#Cc1nc(NC(=O)NCC(=O)N2CCC(c3ccccc3C#N)CC2)cs1` [Compound A35, 1-(2-(4-(2-Cyanophenyl)piperidin-1-yl)-2-oxoethyl)-3-(2-ethynylthiazol-4-yl)urea] yielded an EC50 of 200 to 1000 nM.
`C#Cc1nc(NC(=O)NCC(=O)N2CCN(c3ccccc3C#N)CC2)cs1` [Compound A36, 1-(2-(4-(2-Cyanophenyl)piperazin-1-yl)-2-oxoethyl)-3-(2-ethynylthiazol-4-yl)urea] was tested, and the EC50 was at most 200 nM.
`C#Cc1nc(NC(=O)NCC2CCN(c3ccccc3C#N)CC2)cs1` [Compound A37, 1-((1-(2-Cyanophenyl)piperidin-4-yl)methyl)-3-(2-ethynylthiazol-4-yl)urea] gave an EC50 of at most 200 nM.
`C#Cc1nc(NC(=O)NCC23CC4CC(CC(C4)C2)C3)cs1` [Compound A38, 1-(Adamantan-1-ylmethyl)-3-(2-ethynylthiazol-4-yl)urea] was tested, and the EC50 was at most 200 nM.
`C#Cc1nc(NC(=O)N[C@@H](CO)c2ccc(-c3cccc4ncsc34)cc2)cs1` [Compound A40, (R)-1-(1-(4-(Benzo[d]thiazol-7-yl)phenyl)-2-hydroxyethyl)-3-(2-ethynylthiazol-4-yl)urea] was tested, and the EC50 was at most 200 nM.
`C#Cc1nc(NC(=O)N[C@H](CO)c2ccc(-c3cccc4ncsc34)cc2)cs1` [Compound A41, (S)-1-(1-(4-(Benzo[d]thiazol-7-yl)phenyl)-2-hydroxyethyl)-3-(2-ethynylthiazol-4-yl)urea] showed an EC50 of at most 200 nM.
Work on `C#Cc1nc(NC(=O)N[C@@H](CO)c2ccc(-c3cccc(N4CCCC4)c3)cc2)cs1` [Compound A42, (R)-1-(2-Ethynylthiazol-4-yl)-3-(2-hydroxy-1-(3′-(pyrrolidin-1-yl)-[1,1′-biphenyl]-4-yl)ethyl)urea] yielded an EC50 of at most 200 nM.
Compound `C#Cc1nc(NC(=O)N[C@@H](C(=O)NC)c2ccc(-c3cccnc3C3(C#N)CC3)cc2)cs1` [Compound A43, (R)-2-(4-(2-(1-Cyanocyclopropyl)pyridin-3-yl)phenyl)-2-(3-(2-ethynylthiazol-4-yl)ureido)-N-methylacetamide] has an EC50 of at most 200 nM.
In the case of `C#Cc1nc(NC(=O)N[C@@H](CO)c2ccc(-c3ccccc3C#N)cc2)cs1` [Compound A44, (R)-1-(1-(2′-Cyano-[1,1′-biphenyl]-4-yl)-2-hydroxyethyl)-3-(2-ethynylthiazol-4-yl)urea], the EC50 is reported as at most 200 nM.
Compound `C#Cc1nc(NC(=O)N[C@@H](CO)c2ccc(-c3ccccc3C#N)cn2)cs1` [Compound A45, (R)-1-(1-(5-(2-Cyanophenyl)pyridin-2-yl)-2-hydroxyethyl)-3-(2-ethynylthiazol-4-yl)urea] has an EC50 of at most 200 nM.
Work on `C#Cc1nc(NC(=O)N[C@@H](COC(N)=O)c2ccc(-c3ccccc3C#N)cc2)cs1` [Compound A46, (R)-2-(2′-Cyano-[1,1′-biphenyl]-4-yl)-2-(3-(2-ethynylthiazol-4-yl)ureido)ethyl carbamate] yielded an EC50 of at most 200 nM.
Work on `C#Cc1nc(NC(=O)N[C@@H](COC(N)=O)c2ccc(-c3ncccc3C#N)cc2)cs1` [Compound A47, (R)-2-(4-(3-Cyanopyridin-2-yl)phenyl)-2-(3-(2-ethynylthiazol-4-yl)ureido)ethyl carbamate] yielded an EC50 of at most 200 nM.
`C#Cc1nc(NC(=O)N[C@@H](COC(N)=O)c2ccc(-c3cc(C#N)ccn3)cc2)cs1` [Compound A48, (R)-2-(4-(4-Cyanopyridin-2-yl)phenyl)-2-(3-(2-ethynylthiazol-4-yl)ureido)ethyl carbamate] was tested, and the EC50 was at most 200 nM.
`C#Cc1nc(NC(=O)N[C@@H](COC(N)=O)c2ccc(-c3cccc4ccncc34)cc2)cs1` [Compound A49, (R)-2-(3-(2-Ethynylthiazol-4-yl)ureido)-2-(4-(isoquinolin-8-yl)phenyl)ethyl carbamate] gave an EC50 of at most 200 nM.
Work on `C#Cc1nc(NC(=O)N[C@@H](COC(N)=O)c2ccc(-c3cccc4cncnc34)cc2)cs1` [Compound A50, (R)-2-(3-(2-Ethynylthiazol-4-yl)ureido)-2-(4-(quinazolin-8-yl)phenyl)ethyl carbamate] yielded an EC50 of at most 200 nM.
`C#Cc1nc(NC(=O)N[C@@H](COC(N)=O)c2ccc(-c3cccc4nccnc34)cc2)cs1` [Compound A51, (R)-2-(3-(2-Ethynylthiazol-4-yl)ureido)-2-(4-(quinoxalin-5-yl)phenyl)ethyl carbamate] showed an EC50 of at most 200 nM.
Work on `C#Cc1nc(NC(=O)N[C@@H](CO)c2ccc(-c3c(C#N)ccc4cccnc34)cc2)cs1` [Compound A52, (R)-1-(1-(4-(7-Cyanoquinolin-8-yl)phenyl)-2-hydroxyethyl)-3-(2-ethynylthiazol-4-yl)urea] yielded an EC50 of at most 200 nM.
`C#Cc1nc(NC(=O)N[C@@H](CO)c2ccc(-c3cccc4c3c(C#N)nn4C)cc2)cs1` [Compound A53, (R)-1-(1-(4-(3-Cyano-1-methyl-1H-indazol-4-yl)phenyl)-2-hydroxyethyl)-3-(2-ethynylthiazol-4-yl)urea] showed an EC50 of at most 200 nM.
Compound `C#Cc1nc(NC(=O)N[C@@H](CO)c2ccc(-c3ccccc3C3(C#N)CC3)cc2)cs1` [Compound A54, (R)-1-(1-(2′-(1-Cyanocyclopropyl)-[1,1′-biphenyl]-4-yl)-2-hydroxyethyl)-3-(2-ethynylthiazol-4-yl)urea] has an EC50 of at most 200 nM.
Work on `C#Cc1nc(NC(=O)N[C@@H](COC(N)=O)c2ccc(-c3ccccc3C3(C#N)CC3)cc2)cs1` [Compound A55, (R)-2-(2′-(1-Cyanocyclopropyl)-[1,1′-biphenyl]-4-yl)-2-(3-(2-ethynylthiazol-4-yl)ureido)ethyl carbamate] yielded an EC50 of at most 200 nM.
For `C#Cc1nc(NC(=O)N[C@@H](COC(N)=O)c2ccc(-c3cccc(C4(C#N)CC4)n3)cc2)cs1` [Compound A56, (R)-2-(4-(6-(1-Cyanocyclopropyl)pyridin-2-yl)phenyl)-2-(3-(2-ethynylthiazol-4-yl)ureido)ethyl carbamate], the EC50 was at most 200 nM.
In the case of `C#Cc1nc(NC(=O)N[C@@H](COC(N)=O)c2ccc(-c3cc(C4(C#N)CC4)ccn3)cc2)cs1` [Compound A57, (R)-2-(4-(4-(1-Cyanocyclopropyl)pyridin-2-yl)phenyl)-2-(3-(2-ethynylthiazol-4-yl)ureido)ethyl carbamate], the EC50 is reported as at most 200 nM.
In the case of `C#Cc1nc(NC(=O)N[C@@H](COC(N)=O)c2ccc(-c3ncccc3C3(C#N)CC3)cc2)cs1` [Compound A58, (R)-2-(4-(3-(1-Cyanocyclopropyl)pyridin-2-yl)phenyl)-2-(3-(2-ethynylthiazol-4-yl)ureido)ethyl carbamate], the EC50 is reported as at most 200 nM.
For `C#Cc1nc(NC(=O)N[C@@H](CO)c2ccc(-c3ccccc3C3(C#N)CC3)nc2)cs1` [Compound A59, (R)-1-(1-(6-(2-(1-Cyanocyclopropyl)phenyl)pyridin-3-yl)-2-hydroxyethyl)-3-(2-ethynylthiazol-4-yl)urea], the EC50 was at most 200 nM.
For `C#Cc1nc(NC(=O)N[C@@H](COC(N)=O)c2ccc(-c3ccccc3C3(C#N)CC3)cn2)cs1` [Compound A60, (R)-2-(5-(2-(1-Cyanocyclopropyl)phenyl)pyridin-2-yl)-2-(3-(2-ethynylthiazol-4-yl)ureido)ethyl carbamate], the EC50 was at most 200 nM.
For `C#Cc1nc(NC(=O)N[C@H](COC(N)=O)c2ccc(-c3ccccc3C3(C#N)CC3)cn2)cs1` [Compound A61, (S)-2-(5-(2-(1-Cyanocyclopropyl)phenyl)pyridin-2-yl)-2-(3-(2-ethynylthiazol-4-yl)ureido)ethyl carbamate], the EC50 was at most 200 nM.
With `C#Cc1nc(NC(=O)N[C@@H](CO)c2ccc(-c3cccnc3C3(C#N)CC3)cc2)cs1` [Compound A62, (R)-1-(1-(4-(2-(1-Cyanocyclopropyl)pyridin-3-yl)phenyl)-2-hydroxyethyl)-3-(2-ethynylthiazol-4-yl)urea] the EC50 was at most 200 nM.
In the case of `C#Cc1nc(NC(=O)N[C@@H](COC(N)=O)c2ccc(-c3cccnc3C3(C#N)CC3)cc2)cs1` [Compound A63, (R)-2-(4-(2-(1-Cyanocyclopropyl)pyridin-3-yl)phenyl)-2-(3-(2-ethynylthiazol-4-yl)ureido)ethyl carbamate], the EC50 is reported as at most 200 nM.
